# Activity calls are given as the source filed them. The rule behind the calls is not given here.
# How the values were obtained:
# [1] = Volume of distribution at steady state in cynomolgus monkey at 1 mg/kg, iv administered as bolus dose; format: ADME, organism-based, Macaca fascicularis; conditions: in vivo, read-out: Vdss
# [2] = target: T1, Protein cereblon/Eukaryotic peptide chain release factor GTP-binding subunit ERF3A (Homo sapiens) (UniProt Q96SW2+P15170); experiment: Protac activity at CRBN/GSPT1 in human KG-1 cells assessed as GSPT1 degradation by measuring accumulation of CHOP at 200 uM incubated for 4 hrs by western blot analysis; format: cell-based
# [3] = target: T1, Protein cereblon/Eukaryotic peptide chain release factor GTP-binding subunit ERF3A (Homo sapiens); experiment: Protac activity at CRBN/GSPT1 in CD3+ T cells derived from patients assessed as reduction of GSPT1 levels in T cells administered intravenously for 5 days by flow cytometry analysis; conditions: CD3-positive T cell, time 5.0 day
# HL-60 [4] = experiment: Antitumor activity against human HL-60 cells in xenografted model assessed as reduction in CD33+/CD45+ in bone marrow at 2.5 mg/kg, BID administered for 10 consecutive days relative to control; format: functional; conditions: HL-60, 240 h, time 10 day
# [5] = Toxicity in cynomolgus monkey assessed as effect on cardiovascular system; parameters: species or system Macaca fascicularis; conditions: in vivo
# [6] = Clearance in CD-IGS rat at 2 mg/kg, iv administered as bolus dose; format: ADME, organism-based; conditions: in vivo
# Cytochrome P450 2C19 = Cytochrome P450 2C19 (Homo sapiens, UniProt P33261); experiment: Inhibition of CYP2C19 (unknown origin); format: ADME
# [7] = target: T1, Protein cereblon/Eukaryotic peptide chain release factor GTP-binding subunit ERF3A (Homo sapiens); experiment: Protac activity at CRBN/GSPT1 in CD3+ T cells derived from patients assessed as reduction of GSPT1 levels at 2.4 mg, iv administered for 5 days by flow cytometry analysis relative to control; format: organism-based; parameters: scale not given: the % may be the effect or the level left; conditions: CD3-positive T cell, time 5.0 day
# [8] = target: Muscarinic acetylcholine receptor M2 (Homo sapiens) (UniProt P08172); experiment: Inhibition of human muscarinic M2 receptor at 10 uM relative to control
# [9] = target: Multidrug and toxin extrusion protein 2 (Homo sapiens, UniProt Q86VL8); experiment: Inhibition of MATE2 (unknown origin) at upto 3 uM
# [10] = target: T1, Protein cereblon/Eukaryotic peptide chain release factor GTP-binding subunit ERF3A (Homo sapiens); experiment: Protac activity at CRBN/GSPT1 in human KG-1 cells assessed as GSPT1 degradation by measuring accumulation of ATF4 at 200 uM incubated for 4 hrs by western blot analysis; format: cell-based
# [11] = Volume of distribution at steady state in CD-IGS rat at 2 mg/kg, iv administered as bolus dose; format: ADME, organism-based; conditions: in vivo, read-out: Vdss
# [12] = Clearance in CD1 mouse at 2 mg/kg, iv administered as bolus dose; format: ADME, organism-based; conditions: in vivo
# [13] = target: T1, Protein cereblon/Eukaryotic peptide chain release factor GTP-binding subunit ERF3A (Homo sapiens); experiment: Protac activity at CRBN/GSPT1 in human DF-15 cells assessed as maximum GSPT1 degradation incubated for 20 hrs by hunter detection reagent based luminescence assay relative to control; format: cell-based; conditions: DF15
# [14] = target: Organic anion transporter 3 (Homo sapiens, UniProt Q8TCC7); experiment: Inhibition of OAT3 (unknown origin) at upto 3 uM
# [15] = Terminal half life in iv dosed acute myeloid leukemia patient; format: ADME, organism-based; conditions: human, in vivo, read-out: beta t1/2 (converted)
# CYP2C9 = CYP2C9 (Homo sapiens, UniProt P11712); experiment: Inhibition of CYP2C9 (unknown origin) at 2.5 uM relative to control; format: ADME
# [16] = MRT in CD1 mouse at 2 mg/kg, iv administered as bolus dose; format: ADME, organism-based; conditions: in vivo
# [17] = Volume of distribution at steady state in CD1 mouse at 2 mg/kg, iv administered as bolus dose; format: ADME, organism-based; conditions: in vivo, read-out: Vdss
# [18] = target: Protein cereblon/Zinc finger protein Aiolos (Homo sapiens, UniProt Q96SW2+Q9UKT9); experiment: Protac activity at CRBN/IKZF3 (unknown origin) assessed as IKZF3 degradation; format: protein assay
# Bone marrow cell = experiment: Antiproliferative activity in bone marrow cells derived from AML patients assessed as cell growth inhibition; format: functional, cell-based; conditions: Homo sapiens
# [19] = Total clearance in iv dosed acute myeloid leukemia patient; format: ADME, organism-based; conditions: human, in vivo
# [20] = target: T1, Protein cereblon/Eukaryotic peptide chain release factor GTP-binding subunit ERF3A (Homo sapiens); experiment: Protac activity at CRBN/GSPT1 in human NB-4 cells assessed as induction of GSPT1 degradation at 0.001 to 1 uM incubated for 4 hrs by western blot analysis; format: cell-based; conditions: dose 0.001-1 µM
# [21] = target: ATP-binding cassette sub-family C member 2 (Homo sapiens, UniProt Q92887); experiment: Inhibition of MRP2 (unknown origin) at upto 3 uM
# [22] = target: T1, Protein cereblon/Eukaryotic peptide chain release factor GTP-binding subunit ERF3A (Homo sapiens); experiment: Protac activity at CRBN/GSPT1 in human KG-1 cells assessed as GSPT1 degradation by measuring accumulation of ATF3 at 200 uM incubated for 4 hrs by western blot analysis; format: cell-based
# [23] = Clearance in cynomolgus monkey at 1 mg/kg, iv administered as bolus dose; format: ADME, organism-based, Macaca fascicularis; conditions: in vivo
# [24] = target: T1, Protein cereblon/Eukaryotic peptide chain release factor GTP-binding subunit ERF3A (Homo sapiens); experiment: Protac activity at CRBN/GSPT1 in CD3+ T cells derived from patients assessed as reduction of GSPT1 levels in peripheral blood blast administered intravenously for 5 days by flow cytometry analysis; format: cell-based; conditions: CD3-positive T cell, time 5.0 day
# [25] = target: T1, Protein cereblon/Eukaryotic peptide chain release factor GTP-binding subunit ERF3A (Homo sapiens); experiment: Protac activity at CRBN/GSPT1 in human KG-1 cells assessed as GSPT1 degradation at 1 uM incubated for 4 hrs by western blot analysis; format: cell-based
# Homo sapiens = organism: Homo sapiens; experiment: Inhibition of P-gp (unknown origin) at upto 3 uM; conditions: dose microM <=3
# HL-60 [26] = experiment: Antitumor activity against human HL-60 cells in xenografted model assessed as reduction in CD33+/CD45+ in bone marrow at 5 mg/kg, BID administered for 5 consecutive days relative to control; format: functional; conditions: HL-60, 120 h, time 5 day
# [27] = target: Voltage-gated inwardly rectifying potassium channel KCNH2 (Homo sapiens, UniProt Q12809); experiment: Inhibition of human ERG
# [28] = target: Solute carrier family 22 member 2 (Homo sapiens, UniProt O15244); experiment: Inhibition of OCT2 (unknown origin) at upto 3 uM
# [29] = target: T1, Protein cereblon/Eukaryotic peptide chain release factor GTP-binding subunit ERF3A (Homo sapiens); experiment: Protac activity at CRBN/GSPT1 in human DF15 cells assessed as maximum GSPT1 degradation incubated for 4 hrs by hunter detection reagent based luminescence assay relative to control; format: cell-based
# [30] = target: T1, Protein cereblon/Eukaryotic peptide chain release factor GTP-binding subunit ERF3A (Homo sapiens); experiment: Protac activity at CRBN/GSPT1 in human DF-15 cells assessed as GSPT1 degradation at 0.2 to 3 uM incubated for 4 to 6 hrs by Incell-hunter detection reagent based luminescence assay relative to control; format: cell-based; conditions: DF15, dose 0.2-3 µM, time 4-6 hrs
# [31] = Volume of distribution in iv dosed acute myeloid leukemia patient; format: ADME, organism-based; conditions: human, in vivo
# [32] = target: T1, Protein cereblon/Eukaryotic peptide chain release factor GTP-binding subunit ERF3A (Homo sapiens); experiment: Protac activity at CRBN/GSPT1 in human DF15 cells assessed as in depth GSPT1 degradation incubated for 4 hrs by hunter detection reagent based luminescence assay; format: cell-based
# [33] = target: Muscarinic acetylcholine receptor M1 (Homo sapiens) (UniProt P11229); experiment: Inhibition of human muscarinic M1 receptor at 10 uM relative to control
# [34] = target: T1, Protein cereblon/Eukaryotic peptide chain release factor GTP-binding subunit ERF3A (Homo sapiens); experiment: Protac activity at CRBN/GSPT1 in human KG-1 cells assessed as GSPT1 degradation at 1 uM incubated for 4 hrs in presence of proteasome inhibitor bortezomib by western blot analysis; format: cell-based
# [35] = MRT in CD-IGS rat at 2 mg/kg, iv administered as bolus dose; format: ADME, organism-based; conditions: in vivo
# [36] = target: Solute carrier organic anion transporter family member 1B1 (Homo sapiens, UniProt Q9Y6L6); experiment: Inhibition of OATP1B1 (unknown origin) at upto 3 uM
# [37] = MRT in cynomolgus monkey at 1 mg/kg, iv administered as bolus dose; format: ADME, organism-based, Macaca fascicularis; conditions: in vivo
# Cereblon/Ikaros = Cereblon/Ikaros (Homo sapiens, UniProt Q13422+Q96SW2); experiment: Protac activity at CRBN/IKZF1 (unknown origin) assessed as IKZF1 degradation; format: protein-complex assay
# [38] = target: Broad substrate specificity ATP-binding cassette transporter ABCG2 (Homo sapiens, UniProt Q9UNQ0); experiment: Inhibition of BCRP (unknown origin) at upto 3 uM
# [39] = target: Solute carrier family 22 member 6 (Homo sapiens, UniProt Q4U2R8); experiment: Inhibition of OAT1 (unknown origin) at upto 3 uM
# [40] = target: T1, Protein cereblon/Eukaryotic peptide chain release factor GTP-binding subunit ERF3A (Homo sapiens); experiment: Protac activity at CRBN/GSPT1 in human DF-15 cells assessed as in depth GSPT1 degradation incubated for 20 hrs by hunter detection reagent based luminescence assay relative to control; format: cell-based; conditions: DF15
# [41] = target: T1, Protein cereblon/Eukaryotic peptide chain release factor GTP-binding subunit ERF3A (Homo sapiens); experiment: Protac activity at CRBN/GSPT1 in human KG-1 cells assessed as GSPT1 degradation at 1 uM incubated for 4 hrs in presence of neddylation inhibitor MLN4924 by western blot analysis; format: cell-based
# [42] = target: Solute carrier organic anion transporter family member 1B3 (Homo sapiens, UniProt Q9NPD5); experiment: Inhibition of OATP1B3 (unknown origin) at upto 3 uM
# [43] = Selectivity index, ratio of IC50 for cytotoxicity against human THLE-2 cells to IC50 for antiproliferative activity against human KG-1 cells
# KG-1 = experiment: Antiproliferative activity against human KG-1 cells assessed as reduction in cell viability incubated for 72 hrs by cell titer glo assay; format: functional, cell-based; conditions: KG-1, 72 h
# THLE-2 = experiment: Cytotoxicity against human THLE-2 cells assessed as cell viability incubated for 72 hrs by cell titer glo assay; format: cell-based; conditions: THLE-2, 72 h
# T1 sequence (P15170 whole entry, looked up): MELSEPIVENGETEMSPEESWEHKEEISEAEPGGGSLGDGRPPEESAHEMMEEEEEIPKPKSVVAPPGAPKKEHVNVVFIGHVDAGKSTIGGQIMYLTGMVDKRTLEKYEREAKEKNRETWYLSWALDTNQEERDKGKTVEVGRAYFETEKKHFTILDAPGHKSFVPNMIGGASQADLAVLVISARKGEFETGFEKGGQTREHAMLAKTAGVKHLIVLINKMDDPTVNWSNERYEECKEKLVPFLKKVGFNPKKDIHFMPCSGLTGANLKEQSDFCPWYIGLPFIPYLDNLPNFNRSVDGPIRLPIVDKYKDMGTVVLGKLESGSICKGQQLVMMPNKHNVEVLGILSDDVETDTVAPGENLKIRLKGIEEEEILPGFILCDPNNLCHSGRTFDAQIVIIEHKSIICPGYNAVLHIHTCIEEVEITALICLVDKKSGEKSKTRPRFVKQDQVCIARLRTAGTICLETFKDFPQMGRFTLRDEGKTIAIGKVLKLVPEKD
# T1 sequence (Q96SW2 whole entry, looked up): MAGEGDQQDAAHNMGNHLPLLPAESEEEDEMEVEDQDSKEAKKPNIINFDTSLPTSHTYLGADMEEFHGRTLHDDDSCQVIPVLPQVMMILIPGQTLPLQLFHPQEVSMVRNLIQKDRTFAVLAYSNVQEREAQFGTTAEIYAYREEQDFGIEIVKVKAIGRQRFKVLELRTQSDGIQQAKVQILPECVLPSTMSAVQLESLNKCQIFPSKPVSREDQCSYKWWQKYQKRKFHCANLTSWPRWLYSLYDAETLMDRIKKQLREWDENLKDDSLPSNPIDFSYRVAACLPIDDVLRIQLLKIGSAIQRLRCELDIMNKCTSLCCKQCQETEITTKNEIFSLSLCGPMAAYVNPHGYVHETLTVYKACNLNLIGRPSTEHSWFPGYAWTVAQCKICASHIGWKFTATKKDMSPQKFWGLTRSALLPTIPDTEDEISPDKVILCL
# Chain of Cereblon/Ikaros (Q96SW2 whole entry): as the sequence (Q96SW2 whole entry, looked up) above
# Chain of Cereblon/Ikaros (Q13422 whole entry): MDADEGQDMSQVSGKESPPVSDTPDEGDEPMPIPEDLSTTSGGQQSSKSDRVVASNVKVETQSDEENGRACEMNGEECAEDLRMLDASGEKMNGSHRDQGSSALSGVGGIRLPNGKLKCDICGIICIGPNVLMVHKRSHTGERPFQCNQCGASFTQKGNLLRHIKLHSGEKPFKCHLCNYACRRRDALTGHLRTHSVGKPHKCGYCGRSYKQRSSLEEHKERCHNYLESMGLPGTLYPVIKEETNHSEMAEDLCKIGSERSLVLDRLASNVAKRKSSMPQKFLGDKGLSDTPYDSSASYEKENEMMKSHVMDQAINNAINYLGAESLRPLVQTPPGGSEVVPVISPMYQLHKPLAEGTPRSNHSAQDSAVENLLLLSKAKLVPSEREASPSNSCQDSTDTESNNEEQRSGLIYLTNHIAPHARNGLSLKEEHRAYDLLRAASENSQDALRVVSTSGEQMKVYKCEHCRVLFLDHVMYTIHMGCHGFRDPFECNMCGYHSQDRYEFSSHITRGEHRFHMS
# Chain of Protein cereblon/Zinc finger protein Aiolos (Q96SW2 whole entry): as the sequence (Q96SW2 whole entry, looked up) above
# Chain of Protein cereblon/Zinc finger protein Aiolos (Q9UKT9 whole entry): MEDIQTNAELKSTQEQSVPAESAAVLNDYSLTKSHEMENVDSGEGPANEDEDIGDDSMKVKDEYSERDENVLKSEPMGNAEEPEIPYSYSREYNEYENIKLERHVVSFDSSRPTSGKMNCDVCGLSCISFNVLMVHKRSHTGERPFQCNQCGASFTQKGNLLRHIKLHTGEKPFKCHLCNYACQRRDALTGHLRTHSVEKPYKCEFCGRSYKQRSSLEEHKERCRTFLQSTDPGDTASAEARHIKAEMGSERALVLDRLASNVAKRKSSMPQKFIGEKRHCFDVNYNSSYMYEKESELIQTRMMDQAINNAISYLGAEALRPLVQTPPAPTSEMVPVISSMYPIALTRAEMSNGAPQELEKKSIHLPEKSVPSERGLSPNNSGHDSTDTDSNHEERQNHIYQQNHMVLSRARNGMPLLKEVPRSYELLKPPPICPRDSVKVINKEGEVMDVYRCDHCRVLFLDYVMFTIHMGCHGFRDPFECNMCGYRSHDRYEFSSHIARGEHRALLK
# Chain of Solute carrier organic anion transporter family member 1B1 (Q9Y6L6 whole entry): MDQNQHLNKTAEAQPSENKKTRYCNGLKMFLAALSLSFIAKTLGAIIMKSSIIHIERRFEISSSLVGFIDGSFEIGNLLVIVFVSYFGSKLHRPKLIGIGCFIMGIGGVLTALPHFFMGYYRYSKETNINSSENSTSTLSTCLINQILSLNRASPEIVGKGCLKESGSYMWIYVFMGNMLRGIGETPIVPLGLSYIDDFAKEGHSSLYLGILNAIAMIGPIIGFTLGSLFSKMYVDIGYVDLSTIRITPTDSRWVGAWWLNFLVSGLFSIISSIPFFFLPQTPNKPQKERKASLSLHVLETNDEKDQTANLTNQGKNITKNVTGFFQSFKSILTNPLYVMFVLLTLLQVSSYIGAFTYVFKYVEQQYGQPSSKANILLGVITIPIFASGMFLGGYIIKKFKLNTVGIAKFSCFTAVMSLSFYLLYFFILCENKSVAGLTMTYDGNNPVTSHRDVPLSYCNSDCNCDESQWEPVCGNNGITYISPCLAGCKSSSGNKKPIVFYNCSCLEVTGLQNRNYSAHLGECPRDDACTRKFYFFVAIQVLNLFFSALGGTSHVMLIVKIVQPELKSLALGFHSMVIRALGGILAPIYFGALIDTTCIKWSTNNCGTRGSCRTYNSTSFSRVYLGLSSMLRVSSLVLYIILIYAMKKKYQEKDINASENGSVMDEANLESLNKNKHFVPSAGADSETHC
# Chain of Solute carrier organic anion transporter family member 1B3 (Q9NPD5 whole entry): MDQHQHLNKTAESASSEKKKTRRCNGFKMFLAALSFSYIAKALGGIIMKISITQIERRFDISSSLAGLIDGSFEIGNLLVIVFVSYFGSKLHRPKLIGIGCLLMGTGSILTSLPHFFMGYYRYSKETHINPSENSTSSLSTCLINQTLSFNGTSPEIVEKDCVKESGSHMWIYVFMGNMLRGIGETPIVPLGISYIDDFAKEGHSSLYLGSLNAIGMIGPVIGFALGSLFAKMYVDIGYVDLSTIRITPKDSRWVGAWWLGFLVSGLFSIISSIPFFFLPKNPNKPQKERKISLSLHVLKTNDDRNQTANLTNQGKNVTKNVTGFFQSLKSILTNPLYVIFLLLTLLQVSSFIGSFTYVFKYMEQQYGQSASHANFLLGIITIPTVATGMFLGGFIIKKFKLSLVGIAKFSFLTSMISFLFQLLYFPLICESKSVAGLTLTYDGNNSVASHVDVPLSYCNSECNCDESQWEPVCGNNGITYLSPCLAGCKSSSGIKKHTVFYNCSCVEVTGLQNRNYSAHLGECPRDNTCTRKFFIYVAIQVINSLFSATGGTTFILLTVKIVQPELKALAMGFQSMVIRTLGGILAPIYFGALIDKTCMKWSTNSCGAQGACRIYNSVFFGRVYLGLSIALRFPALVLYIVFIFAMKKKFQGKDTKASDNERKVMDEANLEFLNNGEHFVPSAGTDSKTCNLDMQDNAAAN
# Chain of Organic anion transporter 3 (Q8TCC7 whole entry): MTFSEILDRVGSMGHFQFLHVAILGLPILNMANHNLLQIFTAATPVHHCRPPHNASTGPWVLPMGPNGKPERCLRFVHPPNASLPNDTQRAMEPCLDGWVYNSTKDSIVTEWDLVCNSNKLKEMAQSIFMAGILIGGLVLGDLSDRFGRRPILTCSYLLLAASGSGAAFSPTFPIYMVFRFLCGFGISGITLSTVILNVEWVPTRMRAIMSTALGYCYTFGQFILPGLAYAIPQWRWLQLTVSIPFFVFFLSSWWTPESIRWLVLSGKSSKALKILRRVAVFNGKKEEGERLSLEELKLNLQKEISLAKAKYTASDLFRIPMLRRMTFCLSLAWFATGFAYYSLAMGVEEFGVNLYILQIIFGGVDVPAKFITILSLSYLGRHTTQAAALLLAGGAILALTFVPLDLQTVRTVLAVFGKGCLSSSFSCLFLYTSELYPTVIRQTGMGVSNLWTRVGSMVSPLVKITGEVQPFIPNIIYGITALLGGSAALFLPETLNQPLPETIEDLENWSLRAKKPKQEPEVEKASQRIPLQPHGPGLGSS
# Chain of Muscarinic acetylcholine receptor M1 (Homo sapiens) (P11229 whole entry): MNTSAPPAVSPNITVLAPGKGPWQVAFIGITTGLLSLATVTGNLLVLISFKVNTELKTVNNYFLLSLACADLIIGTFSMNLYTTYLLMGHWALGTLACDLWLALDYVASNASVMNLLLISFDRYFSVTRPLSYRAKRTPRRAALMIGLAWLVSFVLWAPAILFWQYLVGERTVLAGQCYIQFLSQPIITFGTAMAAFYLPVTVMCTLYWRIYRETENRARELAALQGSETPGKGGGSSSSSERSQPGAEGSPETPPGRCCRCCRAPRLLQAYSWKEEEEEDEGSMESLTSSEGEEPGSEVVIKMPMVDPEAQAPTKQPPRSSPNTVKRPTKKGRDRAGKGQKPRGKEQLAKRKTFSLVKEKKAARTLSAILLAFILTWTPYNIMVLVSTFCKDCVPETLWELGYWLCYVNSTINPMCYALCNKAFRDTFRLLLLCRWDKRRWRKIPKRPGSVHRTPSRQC
# Chain of Solute carrier family 22 member 2 (O15244 whole entry): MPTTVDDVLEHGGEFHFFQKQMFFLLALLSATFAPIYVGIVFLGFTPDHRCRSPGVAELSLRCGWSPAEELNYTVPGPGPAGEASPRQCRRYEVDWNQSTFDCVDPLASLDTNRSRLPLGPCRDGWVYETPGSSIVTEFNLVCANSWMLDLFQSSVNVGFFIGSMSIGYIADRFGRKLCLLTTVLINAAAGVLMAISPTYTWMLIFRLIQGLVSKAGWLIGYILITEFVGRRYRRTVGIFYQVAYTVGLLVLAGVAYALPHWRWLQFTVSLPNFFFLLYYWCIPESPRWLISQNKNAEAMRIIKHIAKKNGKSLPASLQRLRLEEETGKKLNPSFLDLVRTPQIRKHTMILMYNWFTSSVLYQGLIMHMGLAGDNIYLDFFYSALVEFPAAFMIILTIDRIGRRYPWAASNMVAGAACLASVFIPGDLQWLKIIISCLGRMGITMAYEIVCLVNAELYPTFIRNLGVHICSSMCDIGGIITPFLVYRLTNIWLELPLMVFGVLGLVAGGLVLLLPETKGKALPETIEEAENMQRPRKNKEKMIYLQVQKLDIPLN
smiles,measurement,setting,value
O=C1CCC(N2Cc3cc(CNC(=O)C(F)(F)c4ccc(Cl)cc4)ccc3C2=O)C(=O)N1 (stereo not given),Vd,[1],1.1 L/kg
same,Activity,[2],Active
same,Activity,[3],Dose-dependent effect
same,inhibition in vivo at 2.5 mg/kg,HL-60 [4],71.5%
same,Activity,[5],Non-Toxic
same,clearance,[6],1.7 L/h/kg
same,IC50,Cytochrome P450 2C19,1.53 µM
same,Activity,[7],90%
same,inhibition,[8],> 50%
same,inhibition (INH),[9],Not Active
same,Activity,[10],Active
same,Vd,[11],2.2 L/kg
same,clearance,[12],4.07 L/h/kg
same,Emax,[13],88%
same,inhibition (INH),[14],Not Active
same,half-life,[15],9.3 h
same,inhibition at 2.5 µM,CYP2C9,41%
same,MRT,[16],0.24 h
same,Vd,[17],1 L/kg
same,EC50,[18],> 10 µM
same,EC50,Bone marrow cell,0.006 µM
same,clearance,[19],116 mL/min
same,Activity,[20],Active
same,inhibition (INH),[21],Not Active
same,Activity,[22],Active
same,clearance,[23],0.36 L/h/kg
same,Activity,[24],Dose-dependent effect
same,Activity,[25],Active
same,inhibition,Homo sapiens,inactive
same,inhibition in vivo at 5 mg/kg,HL-60 [26],54%
same,IC50,[27],5.3 µM
same,inhibition (INH),[28],Not Active
same,Emax,[29],51%
same,Activity,[30],75%
same,Vd,[31],61.7 L
same,Activity,[32],Active
same,inhibition,[33],> 50%
same,Activity,[34],inactive
same,MRT,[35],1.3 h
same,inhibition (INH),[36],Not Active
same,MRT,[37],4 h
same,EC50,Cereblon/Ikaros,> 10 µM
same,inhibition (INH),[38],Not Active
same,inhibition (INH),[39],Not Active
same,Activity,[40],Active
same,Activity,[41],inactive
same,inhibition (INH),[42],Not Active
O=C1CCC(N2Cc3cc(CNC(=O)C(F)(F)c4ccccc4)ccc3C2=O)C(=O)N1 (stereo not given),Ratio IC50,[43],>100
same,IC50,KG-1,0.097 µM
same,IC50,THLE-2,> 10 µM

# Reference: ChEMBL document CHEMBL4706692, “CC-90009: A Cereblon E3 Ligase Modulating Drug That Promotes Selective Degradation of GSPT1 for the Treatment of Acute Myeloid Leukemia” (J Med Chem, 2021)
